{
  "source": "patent US9018208B2",
  "about": "“Heterocycles as potassium channel modulators” (Icagen Inc., priority 2007, dated 2015)",
  "tested_on": "SH-SY5Y M-currents (KCNQ2, KCNQ3 and KCNQ5)",
  "assay": "SH-SY5Y native cell line FLIPR assay (voltage-sensitive dye DiBAC)",
  "assay_type": "cell-based, mouse neuroblastoma, rat glioma hybrid cell line",
  "conditions": "SH-SY5Y native cell line, read-out: SH-SY5Y EC50",
  "how_it_was_run": "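Response is peak DiBAC fluorescence change, normalised to the maximum from a positive control agent, sampled every 30 s over 25 min. Before compound addition, SH-SY5Y cells differentiated with PGE1 plus isomethylbutylxanthine were dye-loaded for 1 h in EBSS with […] DiBAC.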",
  "note": "Where two headings read alike, the source gives them in different places.",
  "data": [
    {"compound": "O=C(Cc1ccc(C(F)(F)F)cc1)Nc1nc2ccc(F)cn2c1-c1ccc(OC(F)(F)F)c(F)c1", "note": "[Compound 297, N-(6-fluoro-3-(3-fluoro-4-(trifluoromethoxy)phenyl)imidazo[1,2-a]pyridin-2-yl)-2-(4-(trifluoromethyl)phenyl)acetamide]", "values": [
      {"measurement": "EC50", "setting": "FLIPR assay, Table 2", "value": "< 500", "unit": "nM"}
    ]},
    {"compound": "CC(C)(C)Cc1c(NC(=O)Cc2ccc(Cl)cc2)nc2ccc(C(F)(F)F)cn12", "note": "[Compound 27, 2-(4-chlorophenyl)-N-(3-neopentyl-6-(trifluoromethyl)imidazo[1,2-a]pyridin-2-yl)acetamide]", "values": [
      {"measurement": "EC50", "setting": "FLIPR assay, Table 1", "value": "< 500", "unit": "nM"}
    ]},
    {"compound": "O=C(Cc1ccc(F)cc1)Nc1nc2ccccn2c1-c1nccs1", "note": "[Compound 407, 2-(4-fluorophenyl)-N-(3-(thiazol-2-yl)imidazo[1,2-a]pyridin-2-yl)acetamide]", "values": [
      {"measurement": "EC50", "setting": "FLIPR assay (Table 3)", "value": "500 to 3000", "unit": "nM"}
    ]},
    {"compound": "CC(C)(C)Cc1c(NC(=O)Cc2ccc(OC(F)(F)F)cc2)nc2ccc(C(F)(F)F)cn12", "note": "[Compound 26, N-(3-neopentyl-6-(trifluoromethyl)imidazo[1,2-a]pyridin-2-yl)-2-(4-(trifluoromethoxy)phenyl)acetamide]", "values": [
      {"measurement": "EC50", "setting": "FLIPR assay, Table 1", "value": "< 500", "unit": "nM"}
    ]},
    {"compound": "CC(CC(=O)Nc1nc2cc(Cl)c(Cl)cn2c1-c1ccc(OC(F)(F)F)cc1)C(F)(F)F", "note": "(centres unmarked) [Compound 219]", "values": [
      {"measurement": "EC50", "setting": "FLIPR assay, Table 2", "value": "500 to 3000", "unit": "nM"}
    ]},
    {"compound": "CC(C)(C)Cc1c(NC(=O)Cc2cccc(OC(F)(F)F)c2)nc2ccc(C(F)(F)F)cn12", "note": "[Compound 25, N-(3-neopentyl-6-(trifluoromethyl)imidazo[1,2-a]pyridin-2-yl)-2-(3-(trifluoromethoxy)phenyl)acetamide]", "values": [
      {"measurement": "EC50", "setting": "FLIPR assay, Table 1", "value": "< 500", "unit": "nM"}
    ]},
    {"compound": "Cc1ccnc(-c2c(NC(=O)CC(C)(C)C)nc3ccc(F)cn23)c1", "note": "[Compound 365, N-(6-fluoro-3-(4-methylpyridin-2-yl)imidazo[1,2-a]pyridin-2-yl)-3,3-dimethylbutanamide]", "values": [
      {"measurement": "EC50", "setting": "FLIPR assay (Table 3)", "value": "500 to 3000", "unit": "nM"}
    ]},
    {"compound": "CC(C)(C)CC(=O)Nc1nc2ccc(C(F)(F)F)cn2c1-c1cc(C(F)(F)F)ccn1", "note": "[Compound 398, 3,3-dimethyl-N-(6-(trifluoromethyl)-3-(4-(trifluoromethyl)pyridin-2-yl)imidazo[1,2-a]pyridin-2-yl)butanamide]", "values": [
      {"measurement": "EC50", "setting": "FLIPR assay (Table 3)", "value": "< 500", "unit": "nM"}
    ]},
    {"compound": "3-tert-butoxy-N-(6-fluoro-3-(4-(trifluoromethoxy)phenyl)imidazo yl)propanamide [Compound 261]", "values": [
      {"measurement": "EC50", "setting": "FLIPR assay, Table 2", "value": "< 500", "unit": "nM"}
    ]},
    {"compound": "O=C(Cc1ccc(F)cc1)Nc1nc2ccc(F)cn2c1-c1ccc(F)c(F)c1", "note": "[Compound 210, N-(3-(3,4-difluorophenyl)-6-fluoroimidazo[1,2-a]pyridin-2-yl)-2-(4-fluorophenyl)acetamide]", "values": [
      {"measurement": "EC50", "setting": "FLIPR assay, Table 2", "value": "< 500", "unit": "nM"}
    ]},
    {"compound": "O=C(CC1CCCC1)Nc1nc2ccc(F)cn2c1-c1cccc(C(F)(F)F)c1", "note": "[Compound 268, 2-cyclopentyl-N-(6-fluoro-3-(3-(trifluoromethyl)phenyl)imidazo[1,2-a]pyridin-2-yl)acetamide]", "values": [
      {"measurement": "EC50", "setting": "FLIPR assay, Table 2", "value": "< 500", "unit": "nM"}
    ]},
    {"compound": "O=C(Cc1ccc(F)cc1)Nc1nc2cc(C(F)(F)F)ccn2c1-c1ccc(F)cc1", "note": "[Compound 111, 2-(4-fluorophenyl)-N-(3-(4-fluorophenyl)-7-(trifluoromethyl)imidazo[1,2-a]pyridin-2-yl)acetamide]", "values": [
      {"measurement": "EC50", "setting": "FLIPR assay, Table 2", "value": "500 to 3000", "unit": "nM"}
    ]},
    {"compound": "CC(C)(C)CC(=O)Nc1nc2ccc(F)cn2c1Cc1ccc(C(F)(F)F)cc1", "note": "[Compound 28, N-(6-fluoro-3-(4-(trifluoromethyl)benzyl)imidazo[1,2-a]pyridin-2-yl)-3,3-dimethylbutanamide]", "values": [
      {"measurement": "EC50", "setting": "FLIPR assay, Table 1", "value": "< 500", "unit": "nM"}
    ]},
    {"compound": "CC(C)CCc1c(NC(=O)CC(C)(C)C(F)(F)F)nc2ccc(C(F)(F)F)cn12", "note": "[Compound 443, 4,4,4-trifluoro-N-(3-isopentyl-6-(trifluoromethyl)imidazo[1,2-a]pyridin-2-yl)-3,3-dimethylbutanamide]", "values": [
      {"measurement": "EC50", "setting": "FLIPR assay (Table 6)", "value": "< 500", "unit": "nM"}
    ]},
    {"compound": "CC(C)(C)Cc1c(NC(=O)CC2CCCC2(F)F)nc2ccc(C(F)(F)F)cn12", "note": "(centres unmarked) [Compound 71, 2-(2,2-difluorocyclopentyl)-N-(3-neopentyl-6-(trifluoromethyl)imidazo[1,2-a]pyridin-2-yl)acetamide]", "values": [
      {"measurement": "EC50", "setting": "FLIPR assay, Table 1", "value": "< 500", "unit": "nM"}
    ]},
    {"compound": "O=C(Cc1ccc(F)cc1)Nc1nc2ccc(C(F)(F)F)cn2c1C1CCCC1", "note": "[Compound 50, N-(3-cyclopentyl-6-(trifluoromethyl)imidazo[1,2-a]pyridin-2-yl)-2-(4-fluorophenyl)acetamide]", "values": [
      {"measurement": "EC50", "setting": "FLIPR assay, Table 1", "value": "< 500", "unit": "nM"}
    ]},
    {"compound": "O=C(CCC1CC1)Nc1nc2ccc(F)cn2c1-c1cccc(C(F)(F)F)c1", "note": "[Compound 280, 3-cyclopropyl-N-(6-fluoro-3-(3-(trifluoromethyl)phenyl)imidazo[1,2-a]pyridin-2-yl)propanamide]", "values": [
      {"measurement": "EC50", "setting": "FLIPR assay, Table 2", "value": "500 to 3000", "unit": "nM"}
    ]},
    {"compound": "Cc1ccc2nc(NC(=O)Cc3ccc(F)cc3)c(-c3nc4ccccc4s3)n2n1", "note": "[Compound 385, N-(3-(benzo[d]thiazol-2-yl)-6-methylimidazo[1,2-b]pyridazin-2-yl)-2-(4-fluorophenyl)acetamide]", "values": [
      {"measurement": "EC50", "setting": "FLIPR assay (Table 3)", "value": "3000 to 10000", "unit": "nM"}
    ]},
    {"compound": "CC(C)(C)C(O)C(=O)Nc1nc2ccc(F)cn2c1-c1ccc(C(F)(F)F)cc1", "note": "(centres unmarked) [Compound 181, N-(6-fluoro-3-(4-(trifluoromethyl)phenyl)imidazo[1,2-a]pyridin-2-yl)-2-hydroxy-3,3-dimethylbutanamide]", "values": [
      {"measurement": "EC50", "setting": "FLIPR assay, Table 2", "value": "500 to 3000", "unit": "nM"}
    ]},
    {"compound": "CC(C)(C)CC(=O)Nc1nc2ccc(F)cn2c1-c1ccc(F)cn1", "note": "[Compound 352, N-(6-fluoro-3-(5-fluoropyridin-2-yl)imidazo[1,2-a]pyridin-2-yl)-3,3-dimethylbutanamide]", "values": [
      {"measurement": "EC50", "setting": "FLIPR assay (Table 3)", "value": "500 to 3000", "unit": "nM"}
    ]},
    {"compound": "CC(CC(=O)Nc1nc2ccc(F)cn2c1Cc1ccc(C(F)(F)F)cc1)C(F)(F)F", "note": "(centres unmarked) [Compound 29, 4,4,4-trifluoro-N-(6-fluoro-3-(4-(trifluoromethyl)benzyl)imidazo[1,2-a]pyridin-2-yl)-3-methylbutanamide]", "values": [
      {"measurement": "EC50", "setting": "FLIPR assay, Table 1", "value": "< 500", "unit": "nM"}
    ]},
    {"compound": "Cc1ccc2nc(NC(=O)C3CCC(F)(F)CC3)c(C3CC3)n2n1", "note": "[Compound 78, N-(3-cyclopropyl-6-methylimidazo[1,2-b]pyridazin-2-yl)-4,4-difluorocyclohexanecarboxamide]", "values": [
      {"measurement": "EC50", "setting": "FLIPR assay, Table 1", "value": "500 to 3000", "unit": "nM"}
    ]},
    {"compound": "O=C(Nc1nc2ccc(C(F)(F)F)cn2c1CC1CCCCC1)C1CCCC1", "note": "[Compound 52, N-(3-(cyclohexylmethyl)-6-(trifluoromethyl)imidazo[1,2-a]pyridin-2-yl)cyclopentanecarboxamide]", "values": [
      {"measurement": "EC50", "setting": "FLIPR assay, Table 1", "value": "< 500", "unit": "nM"}
    ]},
    {"compound": "CC(C)(C)CC(=O)Nc1nc2ccccn2c1-c1cscn1", "note": "[Compound 414, 3,3-dimethyl-N-(3-(thiazol-4-yl)imidazo[1,2-a]pyridin-2-yl)butanamide]", "values": [
      {"measurement": "EC50", "setting": "FLIPR assay (Table 3)", "value": "3000 to 10000", "unit": "nM"}
    ]},
    {"compound": "O=C(Nc1cn2c(C(F)(F)F)cccc2n1)C(F)(F)F", "note": "[Compound 12, 2,2,2-trifluoro-N-(5-(trifluoromethyl)imidazo[1,2-a]pyridin-2-yl)acetamide]", "values": [
      {"measurement": "EC50", "setting": "FLIPR assay, Table 1", "value": "3000 to 10000", "unit": "nM"}
    ]},
    {"compound": "O=C(Cc1ccc(F)cc1)Nc1nc2ncccn2c1-c1cccc(Cl)c1", "note": "[Compound 330, N-(3-(3-chlorophenyl)imidazo[1,2-a]pyrimidin-2-yl)-2-(4-fluorophenyl)acetamide]", "values": [
      {"measurement": "EC50", "setting": "FLIPR assay, Table 2", "value": "3000 to 10000", "unit": "nM"}
    ]},
    {"compound": "O=C(Cc1ccccc1)Nc1nc2ccc(F)cn2c1-c1ccc(F)cc1", "note": "[Compound 106, N-(6-fluoro-3-(4-fluorophenyl)imidazo[1,2-a]pyridin-2-yl)-2-phenylacetamide]", "values": [
      {"measurement": "EC50", "setting": "FLIPR assay, Table 2", "value": "500 to 3000", "unit": "nM"}
    ]},
    {"compound": "CC(C)(C)CC(=O)Nc1nc2ccc(F)cn2c1CC(C)(C)C", "note": "[Compound 15, N-(6-fluoro-3-neopentylimidazo[1,2-a]pyridin-2-yl)-3,3-dimethylbutanamide]", "values": [
      {"measurement": "EC50", "setting": "FLIPR assay, Table 1", "value": "500 to 3000", "unit": "nM"}
    ]},
    {"compound": "O=C(Cc1ccc(F)cc1)Nc1nc2ccccn2c1-c1cccc(C(F)(F)F)c1", "note": "[Compound 338, 2-(4-fluorophenyl)-N-(3-(3-(trifluoromethyl)phenyl)imidazo[1,2-a]pyridin-2-yl)acetamide]", "values": [
      {"measurement": "EC50", "setting": "FLIPR assay, Table 2", "value": "500 to 3000", "unit": "nM"}
    ]}
  ]
}
